Earlier results, collected in US20050282773A1, “Modified polysaccharides in combination with anti-cancer drugs for enhanced treatment of cancer” (Pro-Pharmaceuticals, Inc., priority 2004, published 2005).

Columns and labels:
[1] = system: L-1 sarcoma cells; settings: in vivo
[2] = system: B16 melanoma cells; settings: in vivo

Row | Compound | liver metastasis of L-1 sarcoma cells [1] | metastasis of B16 melanoma cells [2]
1 | O=C[C@H](O)[C@@H](O)[C@@H](O)[C@H](O)CO [D-galactose] | inhibited | 
2 | CC(=O)N[C@H]1[C@H](O[C@H]2[C@@H](O)[C@@H](CO)O[C@@H](O[C@H]3[C@H](O)[C@@H](O)C(O)O[C@@H]3CO)[C@@H]2O)O[C@H](CO)[C@@H](O)[C@@H]1O[C@@H]1O[C@H](CO)[C@H](O)[C@H](O)[C@H]1O (stereo partly shown) [lacto-N-tetrose] |  | inhibit
3 | CO[C@H]1O[C@H](CO)[C@@H](O[C@@H]2O[C@H](CO)[C@H](O)[C@H](O)[C@H]2O)[C@H](O)[C@H]1O [methyl-α-D-lactoside] |  | inhibit
4 | arabinogalactose | inhibited | 
